# Data: US10821115B2, “Compounds that inhibit Mcl-1 protein” (priority 2017, dated 2020)
# Where two headings read alike, the source gives them in different places.
# Legend:
# [1] = biological target: recombinant human Mcl-1 (residues 171-327) / Bim interaction (Homo sapiens (Human), UniProt Q07820); test: biochemical; assay type: binding; settings: TR-FRET, Mcl-1(171-327) / biotin-Bim (51-76); read-out: Mcl-1 HTRF IC50
# [2] = test system: human multiple myeloma cell line, OPM-2; test: Cell viability assay (OPM-2 10 FBS), CellTiter-Glo; assay type: cell-based
# In short: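 Steps: plate cells at 3000/well in 10% FBS growth medium, add serially diluted compound, incubate 16 h at 37 °C with 5% CO2, add detection reagent and read luminescence after 25 min. A 4-parameter logistic model gives IC50.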
# [3] = Homo sapiens, OPM-2, 16 h, read-out: OPM-2 10% FBS IC50 IP, OPM-2 cells, 10% FBS, 16 h, CellTiter-Glo
# [4] = read-out: OPM-2 10% FBS IC50 IP, OPM-2 cells, 10% FBS, 16 h, CellTiter-Glo
# Chain of recombinant human Mcl-1 (residues 171-327) / Bim interaction (Q07820 171-327): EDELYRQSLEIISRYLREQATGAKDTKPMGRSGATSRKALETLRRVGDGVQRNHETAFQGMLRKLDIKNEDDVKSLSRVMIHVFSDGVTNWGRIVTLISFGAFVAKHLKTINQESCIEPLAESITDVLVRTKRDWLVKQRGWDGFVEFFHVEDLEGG
compound,measurement,setting,value
"C[C@@H]1[C@@H](C)CCC[C@@]2(OCCO[C@H]2C=O)[C@@H]2CC[C@H]2CN2C[C@@]3(CCCc4cc(Cl)ccc43)COc3ccc(cc32)C(=O)NS1(=O)=O (single isomer, unassigned) [Example 100495]",IC50,[1],0.462 nM
same,IC50,[2]; [3],539 nM
"C=CCOC[C@]1(O)/C=C/C[C@H](C)[C@@H](C)S(=O)(=O)NC(=O)c2ccc3c(c2)N(C[C@@H]2CC[C@H]21)C[C@@]1(CCCc2cc(Cl)ccc21)CO3 (single isomer, unassigned) [Example 100496]",IC50,[1],2.67 nM
same,IC50,[2]; [3],5060 nM
"CO[C@@]1(c2nccs2)/C=C/C[C@H](C)[C@@H](C)S(=O)(=O)NC(=O)c2ccc3c(c2)N(C[C@@H]2CC[C@H]21)C[C@@]1(CCCc2cc(Cl)ccc21)CO3 (single isomer, unassigned) [Example 100497]",IC50,[1],0.064 nM
same,IC50,[2]; [3],106 nM
"COC(OC)c1cncc([C@@]2(O)/C=C/C[C@H](C)[C@@H](C)S(=O)(=O)NC(=O)c3ccc4c(c3)N(C[C@@H]3CC[C@H]32)C[C@@]2(CCCc3cc(Cl)ccc32)CO4)c1 (single isomer, unassigned) [Example 100507]",IC50,[1],0.43 nM
same,IC50,[2]; [3],490 nM
"COC(OC)c1cncc([C@]2(O)/C=C/C[C@H](C)[C@@H](C)S(=O)(=O)NC(=O)c3ccc4c(c3)N(C[C@@H]3CC[C@H]32)C[C@@]2(CCCc3cc(Cl)ccc32)CO4)c1 (single isomer, unassigned) [Example 100510]",IC50,[1],0.07 nM
same,IC50,[2]; [3],379 nM
"COC(OC)c1cncc([C@@]2(OC)/C=C/C[C@H](C)[C@@H](C)S(=O)(=O)NC(=O)c3ccc4c(c3)N(C[C@@H]3CC[C@H]32)C[C@@]2(CCCc3cc(Cl)ccc32)CO4)c1 (single isomer, unassigned) [Example 100511]",IC50,[1],0.07 nM
same,IC50,[2]; [3],430 nM
"COC(OC)c1cncc([C@]2(OC)/C=C/C[C@H](C)[C@@H](C)S(=O)(=O)NC(=O)c3ccc4c(c3)N(C[C@@H]3CC[C@H]32)C[C@@]2(CCCc3cc(Cl)ccc32)CO4)c1 (single isomer, unassigned) [Example 100514]",IC50,[1],0.088 nM
same,IC50,[2]; [3],231 nM
"CO[C@]1(c2nccs2)/C=C/C[C@H](C)[C@@H](C)S(=O)(=O)NC(=O)c2ccc3c(c2)N(C[C@@H]2CC[C@H]21)C[C@@]1(CCCc2cc(Cl)ccc21)CO3 (single isomer, unassigned) [Example 100522]",IC50,[1],0.144 nM
same,IC50,[2]; [3],538 nM
"C[C@@H]1[C@@H](C)C/C=C/[C@@](O)(c2ccc(F)nc2)[C@@H]2CC[C@H]2CN2C[C@@]3(CCCc4cc(Cl)ccc43)COc3ccc(cc32)C(=O)NS1(=O)=O (single isomer, unassigned) [Example 100530]",IC50,[1],0.171 nM
same,IC50,[2]; [4],448 nM
"C[C@@H]1[C@@H](C)C/C=C/[C@@](O)(c2cncc(-c3ccccc3)c2)[C@@H]2CC[C@H]2CN2C[C@@]3(CCCc4cc(Cl)ccc43)COc3ccc(cc32)C(=O)NS1(=O)=O (single isomer, unassigned) [Example 100534]",IC50,[1],0.799 nM
same,IC50,[2]; [3],542 nM
"CO[C@@]1(c2ccc(F)nc2)/C=C/C[C@H](C)[C@@H](C)S(=O)(=O)NC(=O)c2ccc3c(c2)N(C[C@@H]2CC[C@H]21)C[C@@]1(CCCc2cc(Cl)ccc21)CO3 (single isomer, unassigned) [Example 100535]",IC50,[1],0.57 nM
same,IC50,[2]; [4],964 nM
"C[C@@H]1[C@@H](C)C/C=C/[C@@](O)(c2cnccc2F)[C@@H]2CC[C@H]2CN2C[C@@]3(CCCc4cc(Cl)ccc43)COc3ccc(cc32)C(=O)NS1(=O)=O (single isomer, unassigned) [Example 100536]",IC50,[1],0.204 nM
same,IC50,[2]; [3],826 nM
"CO[C@@]1(c2cnccc2F)/C=C/C[C@H](C)[C@@H](C)S(=O)(=O)NC(=O)c2ccc3c(c2)N(C[C@@H]2CC[C@H]21)C[C@@]1(CCCc2cc(Cl)ccc21)CO3 (single isomer, unassigned) [Example 100538]",IC50,[1],1.47 nM
same,IC50,[2]; [3],2400 nM
"CO[C@]1(c2cnc(Cl)n2C)/C=C/C[C@H](C)[C@@H](C)S(=O)(=O)NC(=O)c2ccc3c(c2)N(C[C@@H]2CC[C@H]21)C[C@@]1(CCCc2cc(Cl)ccc21)CO3 (single isomer, unassigned) [Example 100539]",IC50,[1],0.144 nM
same,IC50,[2]; [3],727 nM
"C[C@@H]1[C@@H](C)C/C=C/[C@](O)(c2cnc(Cl)n2C)[C@@H]2CC[C@H]2CN2C[C@@]3(CCCc4cc(Cl)ccc43)COc3ccc(cc32)C(=O)NS1(=O)=O (single isomer, unassigned) [Example 100543]",IC50,[1],0.451 nM
same,IC50,[2]; [3],821 nM
"C[C@@H]1[C@@H](C)C/C=C/[C@@](O)(c2cnc(Cl)n2C)[C@@H]2CC[C@H]2CN2C[C@@]3(CCCc4cc(Cl)ccc43)COc3ccc(cc32)C(=O)NS1(=O)=O (single isomer, unassigned) [Example 100551]",IC50,[1],0.174 nM
same,IC50,[2]; [3],142 nM
"CO[C@]1(c2nccn2C)/C=C/C[C@H](C)[C@@H](C)S(=O)(=O)NC(=O)c2ccc3c(c2)N(C[C@@H]2CC[C@H]21)C[C@@]1(CCCc2cc(Cl)ccc21)CO3 (single isomer, unassigned) [Example 100553]",IC50,[1],1.04 nM
same,IC50,[2]; [3],2790 nM
"Cc1ncc([C@@]2(O)/C=C/C[C@H](C)[C@@H](C)S(=O)(=O)NC(=O)c3ccc4c(c3)N(C[C@@H]3CC[C@H]32)C[C@@]2(CCCc3cc(Cl)ccc32)CO4)n1C (single isomer, unassigned) [Example 100555]",IC50,[1],0.101 nM
same,IC50,[2]; [3],113 nM
"CO[C@@]1(c2nccn2C)/C=C/C[C@H](C)[C@@H](C)S(=O)(=O)NC(=O)c2ccc3c(c2)N(C[C@@H]2CC[C@H]21)C[C@@]1(CCCc2cc(Cl)ccc21)CO3 (single isomer, unassigned) [Example 100556]",IC50,[1],0.113 nM
same,IC50,[2]; [3],734 nM
"COc1ccncc1[C@]1(O)/C=C/C[C@H](C)[C@@H](C)S(=O)(=O)NC(=O)c2ccc3c(c2)N(C[C@@H]2CC[C@H]21)C[C@@]1(CCCc2cc(Cl)ccc21)CO3 (single isomer, unassigned) [Example 100557]",IC50,[1],0.093 nM
same,IC50,[2]; [3],299 nM
"CO[C@@]1(c2cnc(Cl)n2C)/C=C/C[C@H](C)[C@@H](C)S(=O)(=O)NC(=O)c2ccc3c(c2)N(C[C@@H]2CC[C@H]21)C[C@@]1(CCCc2cc(Cl)ccc21)CO3 (single isomer, unassigned) [Example 100558]",IC50,[1],0.086 nM
same,IC50,[2]; [3],274 nM
"Cc1ncc([C@]2(O)/C=C/C[C@H](C)[C@@H](C)S(=O)(=O)NC(=O)c3ccc4c(c3)N(C[C@@H]3CC[C@H]32)C[C@@]2(CCCc3cc(Cl)ccc32)CO4)n1C (single isomer, unassigned) [Example 100559]",IC50,[1],0.113 nM
same,IC50,[2]; [3],1030 nM
"CO[C@]1(C=O)/C=C/C[C@H](C)[C@@H](Cc2ccccc2)S(=O)(=O)NC(=O)c2ccc3c(c2)N(C[C@@H]2CC[C@H]21)C[C@@]1(CCCc2cc(Cl)ccc21)CO3 (single isomer, unassigned) [Example 100575]",IC50,[1],1.3 nM
same,IC50,[2]; [3],2500 nM
"CC[C@@H]1CC/C=C/[C@@](OC)(C2SCCCS2)[C@@H]2CC[C@H]2CN2C[C@@]3(CCCc4cc(Cl)ccc43)COc3ccc(cc32)C(=O)NS1(=O)=O (single isomer, unassigned) [Example 100579]",IC50,[1],0.214 nM
same,IC50,[2]; [3],757 nM
"CC[C@@H]1CC/C=C/[C@](C=O)(OC)[C@@H]2CC[C@H]2CN2C[C@@]3(CCCc4cc(Cl)ccc43)COc3ccc(cc32)C(=O)NS1(=O)=O (single isomer, unassigned) [Example 100580]",IC50,[1],0.877 nM
same,IC50,[2]; [3],6580 nM
"CO[C@@]1(C)/C=C/C[C@H](C)[C@@H](CCO)S(=O)(=O)NC(=O)c2ccc3c(c2)N(C[C@@H]2CC[C@H]21)C[C@@]1(CCCc2cc(Cl)ccc21)CO3 (single isomer, unassigned) [Example 100593]",IC50,[1],0.464 nM
same,IC50,[2]; [3],215 nM
"CO[C@@]1(C)/C=C/C[C@H](C)[C@@H](CCN2CCOCC2)S(=O)(=O)NC(=O)c2ccc3c(c2)N(C[C@@H]2CC[C@H]21)C[C@@]1(CCCc2cc(Cl)ccc21)CO3 (single isomer, unassigned) [Example 100595]",IC50,[1],0.157 nM
same,IC50,[2]; [4],133 nM
"CO[C@@]1(C)/C=C/C[C@H](C)[C@@H](CCO)S(=O)(=O)NC(=O)c2ccc3c(c2)N(C[C@@H]2CC[C@H]21)C[C@@]1(CCCc2cc(Cl)ccc21)CO3 (single isomer, unassigned) [Example 100596]",IC50,[1],0.229 nM
same,IC50,[2]; [4],186 nM
"CC[C@@H]1CC/C=C/[C@](COCCN2CCOCC2)(OC)[C@@H]2CC[C@H]2CN2C[C@@]3(CCCc4cc(Cl)ccc43)COc3ccc(cc32)C(=O)NS1(=O)=O (single isomer, unassigned) [Example 100597]",IC50,[1],0.263 nM
same,IC50,[2]; [3],577 nM
"CO[C@@]1(C)/C=C/C[C@H](C)[C@@H](CCOS(C)(=O)=O)S(=O)(=O)NC(=O)c2ccc3c(c2)N(C[C@@H]2CC[C@H]21)C[C@@]1(CCCc2cc(Cl)ccc21)CO3 (single isomer, unassigned) [Example 100598]",IC50,[1],0.077 nM
same,IC50,[2]; [4],188 nM
"CO[C@@]1(C)/C=C/C[C@H](C)[C@@H](CCN2CCOCC2)S(=O)(=O)NC(=O)c2ccc3c(c2)N(C[C@@H]2CC[C@H]21)C[C@@]1(CCCc2cc(Cl)ccc21)CO3 (single isomer, unassigned) [Example 100599]",IC50,[1],1.15 nM
same,IC50,[2]; [4],1140 nM
"C[C@@H]1[C@@H](C)C/C=C/[C@](C)(O)[C@@H]2CC[C@H]2CN2C[C@@]3(CCCc4cc(Cl)ccc43)COc3ccc(nc32)C(=O)NS1(=O)=O (single isomer, unassigned) [Example 100600]",IC50,[1],0.445 nM
same,IC50,[2]; [3],528 nM
"C[C@@H]1[C@@H](C)C/C=C/[C@@](C)(O)[C@@H]2CC[C@H]2CN2C[C@@]3(CCCc4cc(Cl)ccc43)COc3ccc(nc32)C(=O)NS1(=O)=O (single isomer, unassigned) [Example 100601]",IC50,[1],0.114 nM
same,IC50,[2]; [3],239 nM
